Where “and” joins values, the source holds several entries; their conditions need not be identical. Identical values can stand only once.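 In this assay, cells in 96-well plates receive the compound at five concentrations for 48 hours. Endpoints are linearly interpolated between the surrounding concentrations. GI50: concentration for 50% inhibition of growth. TGI: concentration producing complete growth inhibition.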

Some test systems named below: MDA-N; MCF7 breast; PC-3 prostate; NCI/ADR-RES ovarian.
Holding throughout (assay): NCI tumour cell line growth inhibition, 48 h

On to `COc1ccc(C(=O)O[C@@H]2CCN3CC[C@H](C)[C@H]23)cc1`, for which the TGI in the test on MDA-N, in the test with MCF7 breast, with PC-3 prostate and in the test with NCI/ADR-RES ovarian was above 100 µM in each case.

Consider `CN(CCNc1ccc(C(=N)N)cc1)c1ccc(C(=N)N)cc1`, for which the figures for the GI50 in the test on MCF7 breast, in the test on PC-3 prostate and in the test with NCI/ADR-RES ovarian were 30.5 µM, 53 µM and 63.6 µM, respectively. Further, the TGI in the test on MCF7 breast, in the test with PC-3 prostate and in the test on NCI/ADR-RES ovarian was above 100 µM each time.

With `CC(C)[C@]12O[C@H]1[C@@H]1O[C@]13[C@]1(O[C@H]1C[C@H]1C4=C(CC[C@@]13C)C(=O)OC4)[C@@H]2OC(=O)OC(C)(C)C`, the GI50 is below 0.0144 µM in the test on MCF7 breast, 0.0238 µM in the test on PC-3 prostate and 0.0286 µM in the test with NCI/ADR-RES ovarian. The TGI is above 100 µM with MCF7 breast, above 41.3 µM in the test on PC-3 prostate and 10.5 µM with NCI/ADR-RES ovarian.

For the compound `CCOC(=O)Cc1csc(Nc2nc(O)c(C3=c4ccccc4=NC3=O)s2)n1`, the GI50 in the test with MCF7 breast is 85.5 µM; in the test on PC-3 prostate, 30.8 µM; in the test on NCI/ADR-RES ovarian it was 55.6 µM. Besides, the TGI in the test with MCF7 breast, with PC-3 prostate and with NCI/ADR-RES ovarian was above 100 µM each time.

Turning to `O=C(NCCNc1nccc(-c2c(-c3ccc(F)cc3)nc3sccn23)n1)Nc1cccc(C(F)(F)F)c1`, the GI50 is 3.73 µM in the test with MCF7 breast, 3.93 µM in the test with PC-3 prostate and 4.38 µM in the test with NCI/ADR-RES ovarian. In addition, the TGI is 19.5 µM in the test on MCF7 breast, 42.3 µM with PC-3 prostate and 64.2 µM with NCI/ADR-RES ovarian.

Regarding `CCN1C2=C(SC(=S)C1=C1SC(C(=O)c3ccccc3)=C(C(=O)c3ccccc3)S1)SC(=Nc1ccccc1)C2=O`, the figures for the GI50 with MCF7 breast, with PC-3 prostate and in the test with NCI/ADR-RES ovarian were 7.44 µM, 17.6 µM and above 73.9 µM, respectively. The TGI with MCF7 breast, with PC-3 prostate and with NCI/ADR-RES ovarian was above 100 µM in each case.

Take `COc1ncnn2ccc(-c3cnc4nc(C)n(Cc5nnc(C(C)F)o5)c4c3)c12` (stereo unspecified): in the test with PC-3 prostate, the GI50 is 0.281 µM and the TGI was above 100 µM. Also, in the test on NCI/ADR-RES ovarian, the GI50 was 0.409 µM and the TGI was above 29.2 µM.

As for `CC12OC(C(=O)C13CC3)C1C(=O)c3cccc(O)c3C(=O)C12` (stereo unspecified), the GI50 in the test with MCF7 breast is 14.3 µM; with PC-3 prostate, 10.3 µM; in the test on NCI/ADR-RES ovarian, 6.9 µM. Besides, the TGI is above 57.9 µM in the test with MCF7 breast, 34.3 µM with PC-3 prostate and 25.3 µM with NCI/ADR-RES ovarian.

Consider `CC(C)c1ccc2c(c1)CCC1C(C)(CN)CCCC21C` (stereo unspecified), for which the TGI in the test with MDA-N was found to be 2.86 µM; with MCF7 breast, 2.82 µM; in the test on PC-3 prostate, 3.12 µM; with NCI/ADR-RES ovarian it was 3.61 µM.

With `Cc1cn2c(/C=N/NC3=NCCN3)c(-c3ccc(Cl)c([N+](=O)[O-])c3)nc2s1`, the GI50 with MCF7 breast is 3.8 µM; in the test with PC-3 prostate, 1.65 µM; in the test on NCI/ADR-RES ovarian, 7.75 µM. Also, the TGI was above 50 µM with MCF7 breast, 4.56 µM with PC-3 prostate and 21.5 µM in the test with NCI/ADR-RES ovarian.

As for `Fc1ccc(-c2nn3c(COc4ccccc4Cl)nnc3s2)cc1Oc1ccccc1`, the GI50 with MCF7 breast was 52.5 µM; in the test with PC-3 prostate it was 22.6 µM; in the test with NCI/ADR-RES ovarian it was 26.6 µM. In addition, the TGI with MCF7 breast is above 100 µM; with PC-3 prostate, 73.8 µM; in the test on NCI/ADR-RES ovarian it was 76.5 µM.

On to `COc1cccc(Nc2ncnn3ccc(CN4CC[C@@H](N)[C@H](O)C4)c23)c1`, for which the GI50 is 11.3 µM and > 4.2 µM in the test on MCF7 breast; 15.2 µM and > 2.39 µM with PC-3 prostate; 4.32 µM and 2.93 µM with NCI/ADR-RES ovarian. The TGI was 24.5 µM and > 8.69 µM with MCF7 breast; above 100 µM with PC-3 prostate; 39.7 µM and > 10 µM with NCI/ADR-RES ovarian.

As for `NS(=O)(=O)c1ccc(N=Nc2c(O)[nH]c3cccc(CCc4ccncc4)c23)cc1`, the GI50 in the test on MCF7 breast, with PC-3 prostate and with NCI/ADR-RES ovarian was above 25 µM throughout. The TGI in the test with MCF7 breast, with PC-3 prostate and in the test with NCI/ADR-RES ovarian was above 25 µM in each case.

`Cc1cc(S(=O)(=O)Nc2n[nH]c(-c3ccc(Cl)cc3)c2C#N)c(S)cc1Cl`: the GI50 in the test on MCF7 breast, with PC-3 prostate and with NCI/ADR-RES ovarian was above 100 µM in each case. The TGI in the test with MCF7 breast, in the test on PC-3 prostate and in the test with NCI/ADR-RES ovarian was above 100 µM throughout.

Take `COc1c(O)cc2c(c1CC=C(C)C)OC(=O)c1c(cc(O)c(CC=C(C)C)c1O)O2`: the GI50 was 6.48 µM in the test with MCF7 breast, 4.87 µM in the test on PC-3 prostate and 4.03 µM in the test on NCI/ADR-RES ovarian. For the same compound, the TGI in the test on MCF7 breast came out at 25 µM; in the test on PC-3 prostate, 9.7 µM; in the test with NCI/ADR-RES ovarian, 8.69 µM.

As for `Nc1cc2c(c3ccccc13)C(CCl)CN2C(=O)c1cc2cc(NC(=O)c3cc4ccccc4o3)ccc2[nH]1` (stereo unspecified), in the test on MCF7 breast, the GI50 was above 0.11 µM and the TGI is below 0.11 µM. Moreover, in the test on NCI/ADR-RES ovarian, the GI50 was above 0.11 µM; the TGI was 0.0078 µM and < 0.11 µM.

Regarding `O=C(CSc1nc2ccc([N+](=O)[O-])cc2[nH]1)Nc1ccc([N+](=O)[O-])cc1`, the values for the GI50 in the test on MCF7 breast, with PC-3 prostate and in the test with NCI/ADR-RES ovarian were 1.95 µM, 2.38 µM and 2.46 µM, respectively. The TGI with MCF7 breast amounted to 8.83 µM; in the test with PC-3 prostate, 12.5 µM; in the test with NCI/ADR-RES ovarian, 8.19 µM.

In the case of `COc1cc2c3c(n(CCCNC(C)(C)CO)c(=O)c2cc1OC)-c1cc2c(cc1C3=O)OCO2`, the values for the GI50 with MCF7 breast, in the test on PC-3 prostate and in the test on NCI/ADR-RES ovarian were 0.294 µM, 2.75 µM and 3.28 µM, respectively. The values for the TGI with MCF7 breast, with PC-3 prostate and with NCI/ADR-RES ovarian were above 50.5 µM, 16.3 µM and 28.3 µM, respectively.

Take `O=C(O)c1cc(C(=O)C(=O)c2cc(C(=O)O)c(O)c3ccccc23)c2ccccc2c1O`: the TGI in the test with MDA-N, with MCF7 breast, in the test on PC-3 prostate and with NCI/ADR-RES ovarian was above 100 µM each time.

As for `O=C(O)c1ccc(NCn2nc(-c3ccccc3O)oc2=S)cc1O`, the GI50 in the test with MCF7 breast was above 100 µM; with PC-3 prostate it was 86.6 µM; in the test on NCI/ADR-RES ovarian, above 100 µM. For the same compound, the TGI with MCF7 breast, in the test on PC-3 prostate and in the test on NCI/ADR-RES ovarian was above 100 µM each time.

Turning to `N#C/C(=C\c1ccc([N+](=O)[O-])cc1)n1nnc2cc(F)c(F)cc21`, the GI50 with MCF7 breast was 1.29 µM; in the test with PC-3 prostate, 1.72 µM; in the test with NCI/ADR-RES ovarian it was 2.96 µM. Also, the results for the TGI in the test with MCF7 breast, in the test on PC-3 prostate and in the test with NCI/ADR-RES ovarian were 3.4 µM, 4 µM and 11.6 µM, respectively.

The values above are taken from PubChem BioAssay (NCI).
